Converted amounts (≈) assume the structure as drawn.
Experiments:
Type in all cases: physicochemical
[1] = Phase solubility study of FFC in Gamma-CD (Higuchi Connors)
Method: (§1) Phase solubility analysis is one of the methods used to determine a drug:CD binding constant and its consequences on the drug solubility have been extensively described in the literature by Higuchi and Connors. In such experiments, the solubility of a substance (S) is monitored with increases in the concentration of a ligand (L) (cyclodextrin in this case). The experiments are conducted in a series of tubes or vials containing the same volume of ligand solutions with increasing concentrations, except that one tube contains the solvent only. To each tube is added a known amount of the substance or drug, and the samples are equilibrated at constant temperature. The solution phase is then analyzed for the total substance concentration. If a soluble complex forms, the substance concentration should vary with increasing ligand concentration. The solubility behavior can be determined using a phase diagram by plotting the total substance concentration versus the total ligand concentration.
(§2) Florfenicol solubility in mixed solvents, such as water/PEG-300, and florfenicol complexes with beta cyclodextrin were evaluated by solubility studies using High Performance Liquid Chromatography (HPLC). The HPLC system consisted of a Waters Alliance Separation Module equipped with a Waters 2996 Photodiode Array Detector interfaced with Millennium Chromatography manager data software. The HPLC mobile phase consisted of acetonitrile and a 0.1% phosphoric acid aqueous solution (30:70 v/v). A Phenomenx®, Luna C8 5 micron column was used. The flow rate was 1.0 mL/min and the detection wavelength was 260 nm. Binding constants were calculated using the Higuchi Connors method from solubility study plots. The solubility of florfenicol in aqueous CD/PEG-300 systems was also investigated with the same technique.
(§3) In a first set of experiments, phase solubility studies were conducted for FFC in natural and modified cyclodextrins. The results of these studies are reported in Tables I, II, III, IV and V below, and the phase solubility diagrams are reported in FIGS. 5, 6, 7 and 8.

[2] = Experimental water solubility of FFC (HPLC solubility study); details: thermodynamic from solid
Method: as §1, §2, §3

[3] = Phase solubility study of FFC in Captisol (Higuchi Connors)
Method: as §1, §2, §3

[4] = Solubility of FFC in aqueous Beta-CD/PEG-300 systems; details: for solubility: aqueous beta-cyclodextrin/PEG-300 system, aqueous with cosolvent or surfactant or cyclodextrin, thermodynamic from solid
Method: as §2
In a second set of experiments, the effects of different percentages of PEG-300 when used as a co-solvent were investigated in a FFC-cyclodextrin complex system.
The results obtained for the FEC-CD complex in the presence of different percentages of PEG-300 and different molar concentrations of cyclodextrin are reported in Tables VI and VII below.

[5] = Phase solubility study of FFC in HP-Beta-CD (Higuchi Connors)
Method: as §1, §2, §3

[6] = Phase solubility study of FFC in Beta-CD (Higuchi Connors)
Method: as §1, §2, §3

- Average FFC ([1]; Gamma-CD 0.007 M): 2.51 mg/mL
- Average FFC ([1]; Gamma-CD 0.014 M): 3.70 mg/mL
- Average FFC ([1]; Gamma-CD 0.03 M): 5.24 mg/mL
- Average FFC ([1]; Gamma-CD 0.06 M): 8.20 mg/mL
- Average FFC ([1]; Gamma-CD 0.11 M): 10.77 mg/mL
- calculated binding constant for FFC:Gamma-CD Complex ([1]; Gamma-CD, Higuchi Connors method): 612.43 M⁻¹
- solubility ([2]; Standard 1): 1910 µg/mL (≈ 5.33 mM)
- solubility ([2]; Standard 2): 1900 µg/mL (≈ 5.3 mM)
- solubility ([2]; Standard 3): 1950 µg/mL (≈ 5.44 mM)
- Average FFC ([3]; Captisol 0.006 M): 4.92 mg/mL
- FFC ([3]; Captisol 0.006 M): 9.28 µM
- Average FFC ([3]; Captisol 0.013 M): 5.11 mg/mL
- FFC ([3]; Captisol 0.013 M): 13.2 µM
- Average FFC ([3]; Captisol 0.03 M): 7.98 mg/mL
- Average FFC ([3]; Captisol 0.05 M): 13.17 mg/mL
- FFC ([3]; Captisol 0.05 M): 34.1 µM
- Average FFC ([3]; Captisol 0.10 M): 19.18 mg/mL
- FFC ([3]; Captisol 0.10 M): 49.7 µM
- calculated binding constant for FFC:Captisol complex ([3]; Captisol, Higuchi Connors method): 1020.92 M⁻¹
- solubility of FFC (change) ([4]; PEG-300 used as co-solvent for a FFC:cyclodextrin complex): greatly increased
- solubility ([4]; 10 mM beta/3% PEG-300): 7510 µg/mL (≈ 21 mM)
- solubility ([4]; 10 mM beta/10% PEG-300): 6310 µg/mL (≈ 17.6 mM)
- solubility ([4]; 10 mM beta/50% PEG-300): 12300 µg/mL (≈ 34.3 mM)
- solubility ([4]; 50 mM beta/20% PEG-300): 10600 µg/mL (≈ 29.5 mM)
- solubility ([4]; 50 mM beta/30% PEG-300): 14400 µg/mL (≈ 40.1 mM)
- solubility ([4]; 50 mM beta/50% PEG-300): 15500 µg/mL (≈ 43.3 mM)
- Average FFC ([5]; HP-Beta-CD 0.006 M): 3.72 mg/mL
- Average FFC ([5]; HP-Beta-CD 0.012 M): 4.88 mg/mL
- Average FFC ([5]; HP-Beta-CD 0.02 M): 7.00 mg/mL
- Average FFC ([5]; HP-Beta-CD 0.05 M): 9.76 mg/mL
- Average FFC ([5]; HP-Beta-CD 0.09 M): 17.43 mg/mL
- calculated binding constant for FFC:HP-CD complex ([5]; HP-Beta-CD, Higuchi Connors method): 816.652 M⁻¹
- Average FFC ([6]; Beta-CD 0.006 M): 4.03 mg/mL
- FFC ([6]; Beta-CD 0.006 M): 10.45 µM
- Average FFC ([6]; Beta-CD 0.01 M): 5.91 mg/mL
- FFC ([6]; Beta-CD 0.01 M): 15.3 µM
- Average FFC ([6]; Beta-CD 0.02 M): 9.79 mg/mL
- FFC ([6]; Beta-CD 0.02 M): 25.4 µM
- Average FFC ([6]; Beta-CD 0.05 M): 15.59 mg/mL
- FFC ([6]; Beta-CD 0.05 M): 40.4 µM
- calculated binding constant for FFC:CD complex ([6]; Beta-CD, Higuchi Connors method): 1429.57 M⁻¹
SMILES: CS(=O)(=O)c1ccc([C@@H](O)[C@@H](CF)NC(=O)C(Cl)Cl)cc1 (relative stereo) [FFC, [R-(R*,S*)]2,2-Dichloro-N-[1-(fluoromethyl)-2-hydroxy-2-[4-(methylsulfonyl)phenyl]-ethyl]acetamide]

Source: patent US20090062397A1, “COMPOUNDS AND METHODS FOR ENHANCING SOLUBILITY OF FLORFENICOL AND STRUCTURALLY-RELATED ANTIBIOTICS USING CYCLODEXTRINS” (Schering-Plough Animal Health Corporation, priority 2007, published 2009)
